Test results as given in patent publication US9290487B2, “Pharmaceutical composition for treating diabetes” (Ajinomoto Co., Inc., priority 2011, dated 2016).
Where a name gives a salt, the structure may show the parent alone. Read-outs that look alike come from different tables or passages of the source.

How the values were obtained:
[1] = target: human GYS1 (glycogen synthase) (Homo sapiens (Human), UniProt P13807); experiment: Measurement of glycogen synthase activity (coupled pyruvate kinase/lactate dehydrogenase assay, absorbance at 340 nm); format: biochemical; settings: concentration inducing relative activity of 50% (100% = Ex. 1 of WO/2011/058154 at 10 μM)
Chain of human GYS1 (glycogen synthase) (P13807 whole entry): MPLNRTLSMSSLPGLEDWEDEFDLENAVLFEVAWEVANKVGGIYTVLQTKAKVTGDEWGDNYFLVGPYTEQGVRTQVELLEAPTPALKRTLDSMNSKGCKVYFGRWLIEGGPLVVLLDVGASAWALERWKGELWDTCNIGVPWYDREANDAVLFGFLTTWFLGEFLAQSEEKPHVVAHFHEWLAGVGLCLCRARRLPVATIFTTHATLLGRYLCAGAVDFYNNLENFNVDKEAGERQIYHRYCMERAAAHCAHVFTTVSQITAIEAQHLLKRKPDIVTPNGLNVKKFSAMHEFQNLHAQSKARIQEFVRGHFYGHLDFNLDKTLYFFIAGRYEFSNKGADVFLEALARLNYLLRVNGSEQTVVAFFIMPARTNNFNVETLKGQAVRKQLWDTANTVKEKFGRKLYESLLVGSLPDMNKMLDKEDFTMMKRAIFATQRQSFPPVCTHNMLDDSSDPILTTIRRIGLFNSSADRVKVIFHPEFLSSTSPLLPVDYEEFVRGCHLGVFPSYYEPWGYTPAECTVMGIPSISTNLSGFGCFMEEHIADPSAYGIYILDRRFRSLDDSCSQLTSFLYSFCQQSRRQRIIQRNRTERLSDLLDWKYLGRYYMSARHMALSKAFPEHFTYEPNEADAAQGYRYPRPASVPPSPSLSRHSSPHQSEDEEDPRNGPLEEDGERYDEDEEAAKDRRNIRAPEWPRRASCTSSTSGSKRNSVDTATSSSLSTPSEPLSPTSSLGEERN
Description: A human GYS1 expression plasmid (pCDNA3.1(+)-hGYS1) was constructed by the following method. Using a human skeletal muscle cDNA of Human MTC Panel I (Takara Bio Inc., 636742) as a template, a human GYS1 gene was amplified by a PCR method using cloning primers (Forward Primer: ATGCCTTTAAACCGCAC (SEQ ID NO: 1), Reverse Primer: TTAGTTACGCTCCTCGC (SEQ ID NO: 2)). Using the amplified human GYS1 sequence as a template, a restriction enzyme sequence was added by a PCR method using sub-cloning primers (Forward Primer: […] (SEQ ID NO: 3), Reverse Primer: […] (SEQ ID NO: 4)). Then, the human GYS1 gene was introduced between a Xho I site and a Xba I site of pCDNA3.1(+) (Invitrogen Corporation, V790-20).
Glycogen synthase was prepared by the following method according to the published article (THE JOURNAL OF BIOLOGICAL CHEMISTRY Vol. 269, No. 41, 25534-25542, 1994). Human kidney-derived HEK293T cells were seeded in a dish (Thermo Fisher Scientific Inc., 168381) using a 10% FBS-containing DMEM (Nacalai Tesque, Inc., 0845874) medium, and cultured overnight. Then, using Lipofectamine LTX (Invitrogen Corporation, 15338-100), the human GYS1 expression vector was transfected according to the attached manual. After culturing under conditions of 37° C. and 5% CO2 for 2 days, the resultant was dissolved in a lysis buffer (50 mM Tris-HCl (pH 8.0), 10 mM EDTA, 2 mM EGTA, 100 mM NaF, 1 mM PMSF, 1 mM DTT, 1× Complete (Roche Diagnostics K. K., 1873580)), homogenized, and then centrifuged at 16000×g at 4° C. for 15 minutes. To the precipitated fraction, a lysis buffer was added. Re-dissolved fractions were used as glycogen synthase for evaluation.
The glycogen synthase activity was measured by the following method. To a polystyrene 96-well plate, a solution containing 30 mM glycylglycine (pH 7.3), 40 mM KCl, 20 mM MgCl2, 9.2% DMSO containing one of the test compounds at various concentrations, and 10 mM glucose-6-phosphate (Sigma-Aldrich Corporation, G7879) was added by 12 μL/well.
Next, a substrate solution containing 30 mM glycylglycine (pH 7.3), 4.3 mg/mL of glycogen (Sigma-Aldrich Corporation, G8876), 21.6 mM UDP-glucose (Sigma-Aldrich Corporation, U4625), 21.6 mM phosphoenolpyruvic acid (Sigma-Aldrich Corporation, P0564), and 4.05 mM NADH (Sigma-Aldrich Corporation, N8129) was added by 18 μL/well.
Further, an enzyme solution containing 50 mM Tris-HCl (pH 8.0), 27 mM DTT (Nacalai Tesque, Inc., 14128-04), 0.2 mg/mL of bovine serum albumin, 0.17 mg/mL of the glycogen synthase, 1.5 μL of a pyruvate kinase/lactate dehydrogenase solution (Sigma-Aldrich Corporation, P0294) was added by 18 μL/well to prepare a reaction solution. After the reaction solution was incubated (at 30° C. for 25 minutes for Examples 1 to 10, at 37° C. for 20 minutes for Examples 11 to 75), the absorbance at 340 nm was measured using Benchmark Plus (Bio-Rad Laboratories, Inc.).
The activities of the test compounds were calculated by the following method. The change in the absorbance (ΔA340) was calculated by subtracting the absorbance at 340 nm of the reaction solution containing the compound and DMSO from the absorbance at 340 nm of a reaction solution not containing the compound but containing only DMSO. The ΔA340 of the reaction solution containing the compound of Example 1 in WO/2011/058154 at the final concentration of 10 μM was taken as 100% to calculate the relative activity (%) of the test compounds at various concentrations. EC50 representing the concentration of the compound which induces an increase in the relative activity to 50% was calculated using XLfit (idbs).

PPAR-α = PPAR-α (Homo sapiens (Human), UniProt Q07869); experiment: Measurement of PPAR-α activity (GAL4 luciferase reporter assay in CV-1 cells); format: cell-based; settings: 100(A/B), B = compound in WO/2011/058154 at 100 μM, read-out: PPARα relative fold induction (%)
Chain of PPAR-α (Q07869 167-468): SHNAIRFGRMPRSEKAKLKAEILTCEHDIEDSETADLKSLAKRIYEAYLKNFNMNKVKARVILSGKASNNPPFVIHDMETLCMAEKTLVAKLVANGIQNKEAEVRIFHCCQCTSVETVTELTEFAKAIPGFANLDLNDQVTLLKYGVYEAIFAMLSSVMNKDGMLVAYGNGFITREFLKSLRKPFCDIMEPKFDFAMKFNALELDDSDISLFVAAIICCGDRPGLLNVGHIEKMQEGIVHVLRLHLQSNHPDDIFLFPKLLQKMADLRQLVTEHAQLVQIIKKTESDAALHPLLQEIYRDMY
Description: The PPAR-α activity was measured according to the published article (THE JOURNAL OF BIOLOGICAL CHEMISTRY Vol. 270, No. 22, 12953-12956, 1995).
Plasmids used for the PPAR-α activity measurement were constructed as follows. A luciferase expression plasmid (UASx5-TK-Luc) used was obtained by introducing a sequence, in which five yeast GAL4-binding sequences are linked in tandem, upstream of a thymidine kinase promoter of pTAL-Luc (Takara Bio Inc., 6252-1). A PPAR-α receptor expression plasmid (hGR-GAL4-hPPARα) used was obtained by introducing a human GR N-terminal region (1-76 aa), a yeast GAL4 DNA-binding region (1-147 aa), and a PPARα ligand-binding region (167-468 aa) between a Not I site and a Sal I site of pExchange-1 Core Vector (Invitrogen Corporation, 211176).
A reporter assay was conducted by the following method using Cercopithecus aethiops kidney-derived CV-1 cells. The CV-1 cells were seeded in a 96-well plate (Thermo Fisher Scientific Inc., 4938) at 2×10^4 cells/well using a 10% FBS-containing DMEM (Nacalai Tesque, Inc., 0845874) medium. After culturing under conditions of 37° C. and 5% CO2 for 2 hours, the plasmids were transfected. Lipofectamine LTX (Invitrogen Corporation, 15338-100) was used for the transfection according to the attached manual. The plasmid solution was prepared by adding a mixture solution of the luciferase expression plasmid and the PPAR-α receptor expression plasmid to OPTI-MEM I (Invitrogen Corporation, 11058-021). After the transfection was conducted, the test compound was added, and cultured at 37° C. in the presence of 5% CO2 for 18 to 20 hours. After the culturing was completed, the luciferase activity was measured with Luminescensor JNR (ATTO) using Bright-Glo (Promega Corporation, E2620).
The fold induction of PPAR-α by the test compounds was calculated by the following method. For the compounds of Examples 1, 4, 5, 7, and 9, PPAR-α relative fold induction (%) was defined as 100 (A/B), where A represents the maximum value of PPAR-α activities with the test compound at 0.3 μM, 1 μM, 3 μM, 10 μM, 30 μM, and 100 μM, and B represents the PPAR-α activity with the compound in WO/2011/058154 at 100 μM. For the compounds of Examples 11, 15, 19, 22, 26, and 32, PPAR-α relative fold induction (%) was defined as 100 (A/B), where A represents the maximum value of PPAR-α activities with the test compound at 3 μM, 10 μM, 30 μM, and 100 μM, and B represents the PPAR-α activity with the compound in WO/2011/058154 at 100 μM.

[2] = incubation at 30° C. for 25 minutes (Examples 1 to 10)
[3] = A = maximum activity at 0.3, 1, 3, 10, 30 and 100 μM
[4] = incubation at 37° C. for 20 minutes (Examples 11 to 75)
[5] = A = maximum activity at 3, 10, 30 and 100 μM
[6] = test concentrations not stated for these examples

Compound	EC50 [1, 2]	Emax (PPAR-α; [3])	EC50 [1, 4]	Emax (PPAR-α; [5])	Emax (PPAR-α; [6])
O=C(O)[C@@H]1CCCN1C(=O)c1cccc(COc2ccc(-c3cc(F)cc4c3OCC4)cc2)c1 [compound of Ex. 1, 1-(3-{[4-(5-fluoro-2,3-dihydro-1-benzofuran-7-yl)phenoxy]methyl}benzoyl)-L-proline]	260 nM	10%	–	–	–
O=C(O)[C@@H]1CCCN1C(=O)c1cccc(COc2ccc(-c3cccc4c3OCO4)cc2)c1 [compound of Ex. 4, 1-(3-{[4-(1,3-benzodioxol-4-yl)phenoxy]methyl}benzoyl)-L-proline]	250 nM	17%	–	–	–
O=C(O)[C@@H]1CCCN1C(=O)c1cccc(COc2ccc(-c3cccc4c3OCC4)cc2)c1 [compound of Ex. 5]	500 nM	10%	–	–	–
O=C(O)[C@@H]1CCCN1C(=O)c1cccc(COc2ccc(-c3cccc4ccoc34)cc2)c1 [compound of Ex. 7]	260 nM	17%	–	–	–
O=C(O)[C@@H]1CCCN1C(=O)c1cccc(COc2ccc(-c3cccc4c3OCC=C4)cc2)c1 [compound of Ex. 9]	320 nM	11%	–	–	–
O=C(O)[C@@H]1CCCN1C(=O)c1cccc(COc2ccc(-c3cc(F)c(F)c4ccoc34)cc2)c1 [compound of Ex. 15, 1-(3-{[4-(4,5-difluoro-1-benzofuran-7-yl)phenoxy]methyl}benzoyl)-L-proline]	–	–	22 nM	20%	–
O=C(O)[C@@H]1CCCN1C(=O)c1cccc(COc2ccc(-c3cc(F)c(F)c4c3OCC4)cc2)c1 [compound of Ex. 19, 1-(3-{[4-(4,5-difluoro-2,3-dihydro-1-benzofuran-7-yl)phenoxy]methyl}benzoyl)-L-proline]	–	–	31 nM	12%	–
CC1(C)Cc2cc(F)cc(-c3ccc(OCc4cccc(C(=O)N5CCC[C@H]5C(=O)O)c4)cc3)c2O1 [compound of Ex. 22, 1-(3-{[4-(5-fluoro-2,2-dimethyl-2,3-dihydro-1-benzofuran-7-yl)phenoxy]methyl}benzoyl)-L-proline]	–	–	180 nM	15%	–
O=C(O)[C@@H]1CCCN1C(=O)c1cccc(COc2ccc(-c3cccc4[nH]ccc34)cc2)c1 [compound of Ex. 26, 1-(3-{[4-(1H-indol-4-yl)phenoxy]methyl}benzoyl)-L-proline]	–	–	160 nM	13%	–
O=C1COc2c(cccc2-c2ccc(OCc3cccc(C(=O)N4CCC[C@H]4C(=O)O)c3)cc2)N1 [compound of Ex. 32, 1-(3-{[4-(3-oxo-3,4-dihydro-2H-1,4-benzoxazin-8-yl)phenoxy]methyl}benzoyl)-L-proline]	–	–	750 nM	3%	–
O=C(O)[C@@H]1CCCN1C(=O)c1cccc(COc2ccc(-c3cc(F)c(F)cc3S)cc2)c1 [compound of Ex. 40, 1-(3-{[(4′,5′-difluoro-2′mercaptobiphenyl-4-yl)oxy]methyl}benzoyl)-L-proline]	–	–	110 nM	–	10%
N#CCNc1cc(-c2ccc(OCc3cccc(C(=O)N4CCC[C@H]4C(=O)O)c3)cc2)cc(F)c1F [compound of Ex. 42, 1-{3-[({3′-[(cyanomethyl)amino]-4′,5′-difluorobiphenyl-4-yl}oxy)methyl]benzoyl}-L-proline trifluoroacetic acid salt]	–	–	54 nM	–	13%
O=Cc1cc(F)c(F)cc1-c1ccc(OCc2cccc(C(=O)N3CCC[C@H]3C(=O)O)c2)cc1 [compound of Ex. 43, 1-(3-{[(4′,5′-difluoro-2′-formylbiphenyl-4-yl)oxy]methyl}benzoyl)-L-proline]	–	–	70 nM	–	11%
COC(=O)c1cc(F)c(F)cc1-c1ccc(OCc2cccc(C(=O)N3CCC[C@H]3C(=O)O)c2)cc1 [compound of Ex. 44, 1-[3-({[4′,5′-difluoro-2′-(methoxycarbonyl)biphenyl-4-yl]oxy}methyl)benzoyl]-L-proline]	–	–	810 nM	–	10%
CC(=O)COc1cc(-c2ccc(OCc3cccc(C(=O)N4CCC[C@H]4C(=O)O)c3)cc2)cc(F)c1F [compound of Ex. 49, 1-[3-({[3′,4′-difluoro-5′-(2-oxopropoxy)biphenyl-4-yl]oxy}methyl)benzoyl]-L-proline]	–	–	220 nM	–	17%
CC(O)COc1cc(-c2ccc(OCc3cccc(C(=O)N4CCC[C@H]4C(=O)O)c3)cc2)cc(F)c1F (stereo partly drawn) [compound of Ex. 50, 1-[3-({[3′,4′-difluoro-5′-(2-hydroxypropoxy)biphenyl-4-yl]oxy}methyl)benzoyl]-L-proline]	–	–	410 nM	–	15%
CC(=O)CSc1cc(F)c(F)cc1-c1ccc(OCc2cccc(C(=O)N3CCC[C@H]3C(=O)O)c2)cc1 [compound of Ex. 51, 1-{3-[({4′,5′-difluoro-2′-[(2-oxopropyl)thio]biphenyl-4-yl}oxy)methyl]benzoyl}-L-proline]	–	–	83 nM	–	15%
